Experimental findings from patent US12144840B2, “Method for treating or preventing benign prostatic hyperplasia” (priority 2017, dated 2024) are described below.

The test system of data set [1] is testosterone-induced benign prostatic hyperplasia. The class given is in vivo, male Wistar rats. Particulars: BPH rats; for Ratio (b/a* 100): prostate weight/body weight. Here is the method:
(§1) After 6-week-old male Wistar rats (Samtako, Korea) were obtained and acclimated for one week, six animals constituted each test group when each animal weighed 340-350 g.
(§2) As for the test configuration, the animals were divided into groups without testicle removal and groups undergoing […] recovery after testicle removal, and each group was subcutaneously injected with 5 mg/kg testosterone to induce benign prostatic hyperplasia for weeks (BPH induced group). Test groups were constructed by oral administration of Aucklandiae Radix extracts and costunolide at different concentrations (mg/kg) once a day, seven times a week, for 8 weeks.
After the completion of the test, the rats of all the test groups were euthanized, and then prostate tissue and main organs were extracted, and weights and volumes thereof were measured using an electronic scale for animal weights and a caliper (mm^3) (Table 2).

Data set [2] has as its system RAW 264.7 cells. Description: Nitric oxide (NO) change in LPS-activated macrophages (Griess reagent). It counts as cell-based. Particulars: 200 ng LPS, various concentrations, 18 hours, vs LPS alone; dose-dependent (FIG. 1). Here is the method: (§3) RAW 264.7 cells, which were macrophages used in the present tests, were available from American Type Culture Collection (ATCC). These cells were cultured in CO2 incubator (Formascientific, Inc.) using DMEM containing 10% fetal bovine serum (FBS). The differentiation of cells was observed through microscopic observation, and then the cells were used in the tests.
To induce the activation of macrophages, RAW 264.7 cells were treated with 200 ng/ ? lipopolysaccharide (LPS) while simultaneously treated with various concentrations (μg/ ? ) of a 100% methanol extract of Aucklandiae Radix (expressed by MeOH 100%), a 30% ethanol extract of Aucklandiae Radix (expressed by EtOH 30%), and a 70% ethanol extract of Aucklandiae Radix (expressed by EtOH 70%), and costunolide, and then the cells were cultured in a 37° C., 5% CO2 incubator for 18 hours. After 18 hours, 100 ? of the supernatant was transferred to a new plate for each group, and 100 ? of a solution, in which Griess reagent A (2% sulfanilamide in 5% phosphoric acid) and Greiss reagent B (0.2% naphthylethylenediamine dihydrochloride) were mixed at a rate of 1:1, was added thereto. Thereafter, the absorbance was measured at 540 nm.

Data set [3] deals with RAW 264.7 cells. As to the kind of experiment: Inflammatory cytokine (IL-1β, IL-6, TNF-α) levels by ELISA in LPS-activated macrophages. It counts as cell-based. Particulars: 200 ng LPS, various concentrations, 18 hours, vs cells treated with only LPS (FIG. 2). The method, then: as §3
RAW 264.7 cells were treated with 200 ng/ ? LPS while simultaneously treated with various concentrations (μg/ ? ) of Aucklandiae Radix extracts (EtOH 30% and 70%) and costunolide, and then the cells were cultured in a 37° C., 5% CO2 incubator for 18 hours. After 18 hours, ELISA analysis kits (eBioScience 88-7013, 88-7064 USA, BD 555268 USA) were used to check the levels of the inflammatory cytokines IL-1β, IL-6, and TNF-α in the supernatant of each group.

Data set [4] is classed as in vivo, male Wistar rats. The method, then:
as §1
as §2, with “weeks. Positive control groups were used by oral administration of finasteride, which has been used as a medicine for benign prostatic hyperplasia.” for “weeks.”
For analysis of biochemical markers in serum, blood was obtained through the abdominal vein from rats of all the groups at necropsy. The blood was coagulated for about 30 minutes, and then centrifuged for 5 minutes at 10,000 rpm to separate serum. After serum separation, a biochemistry analyzer (AU480, Beckman Coulter, USA) was used to check liver function (AST, ALP), lipoprotein (total cholesterol (T-CHO)), HDL cholesterol (HDL-C), LDL cholesterol (LDL-C)), and kidney function ([…]) levels (Table 3).

The next data set relates to prostate tissue. Description: Prostate pathology biopsy (H&E) in BPH model rats. It counts as in vivo, male Wistar rats. Particulars: oral once a day, 8 weeks. The method, then: as §1
as §2, with “weeks. Positive control groups were used by oral administration of finasteride, which has been used as a medicine for benign prostatic hyperplasia.” for “weeks.”
After the completion of the test, the prostate tissue extracted from each group was fixed with 10% neutral formalin and stored. The tissue of each group was processed into paraffin blocks, and slides for microscopic inspection of tissue were manufactured and stained with hematoxylin & eosin (H&E). The microscopic inspection of tissue was conducted through a microscope (Olympus, Tokyo, Japan) at a magnification of X200.

[5] abbreviates: positive control group, oral, dose not given.
The mark [6] stands for this setting: oral 0.075 mg/kg once a day, 8 weeks.

Several values for one entry are separate records, joined by “and”; a condition that tells them apart may be missing. Equal values may be shown once. Read-outs that look alike come from different tables or passages of the source.

For `CC(C)(C)NC(=O)[C@H]1CC[C@H]2[C@@H]3CC[C@H]4NC(=O)C=C[C@]4(C)[C@H]3CC[C@]12C` [Fina, finasteride], in data set [1] (setting [5]), the “Body Weight (a)” value was 379 g and 415 g; the “Prostate Weight (b)” value is 1.23 g and 1.42 g; the Prostate volume is 2,322 mm^3 and 4,255 mm^3; the Speen weight is 0.60 g and 0.70 g. Besides, the “Ratio (b/a* 100)” value in data set [1] (setting [5]) is 0.29 and 0.34.
`C=C1C(=O)O[C@@H]2/C=C(\C)CC/C=C(\C)CC[C@@H]12` [costunolide]: the “amount of NO” value with RAW 264.7 cells [2] is “significantly decreased”. The “secretion levels of the inflammatory cytokines (IL-1β, IL-6, TNF-α)” value in the data set on RAW 264.7 cells [3] is “decreases”. In data set [1] (costunolide administration groups, printed as 0.075 μg/, compared with finasteride administration groups (FIG. 3)), the “prostate weights and volumes” value is recorded as “significant reduction effect”. For the same molecule, in data set [1] (setting [6]), the “Body Weight (a)” value was found to be 433 g, the Liver weight was found to be 10.72 g, the “Prostate Weight (b)” value was determined as 1.40 g and the Prostate volume is 4,126 mm^3. Besides, in data set [1] (setting [6]), the Speen weight was determined as 0.62 g and the “Ratio (b/a* 100)” value is reported as 0.32. In addition, the “serum liver function, lipoprotein and kidney function levels (hepatoxicity and kidney toxicity)” value in data set [4] (BPH rats, oral once a day, 8 weeks, all administered groups) was “no significant changes”. In data set [4] (rat, in vivo, po, 0.075 mg/kg), this molecule gave an ALP of 61.17 U/L, an AST of 78.33 U/L, a CRE of 0.27 mg/dL and an HDL of 51.50 mg/dL. In data set [4] (rat, in vivo, po, 0.075 mg/kg), this molecule registered an LDL of 13.17 mg/dL and a T-CHO of 79.67 mg/dL. The “endothelial thicknesses of prostate tissue (H&E, X200)” value with prostate tissue (compared with the benign prostatic hyperplasia induced group (FIGS. 4 and 5)) is reported as “significantly reduced”. The “alveolar glands of prostate tissue (H&E, X200)” value in the data set with prostate tissue (similar to the normal control group (FIGS. 4 and 5)) is on record as “maintained in a round shape without atrophy”.
